pKd: −log10 of the molar value.
Target: T1, LmrR (Lactococcus cremoris, UniProt A2RI36)
T1 construct: gene llmg_0323; C-terminal His6-tagged LmrR (homodimer)
Test: ITC ([…] stoichiometry, […] °C); supported by NMR titration
Type: binding

T1 sequence (A2RI36 entry or part of it): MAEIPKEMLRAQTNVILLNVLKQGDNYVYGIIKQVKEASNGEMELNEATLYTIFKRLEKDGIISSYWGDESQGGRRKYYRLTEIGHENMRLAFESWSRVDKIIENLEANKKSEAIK

pKd: 6.48
SMILES: Cc1cc2nc3c(=O)[nH]c(=O)nc-3n(C[C@H](O)[C@H](O)[C@H](O)CO)c2cc1C [riboflavin]

Reference: article PMC5428041, “Dynamic equilibrium on DNA defines transcriptional regulation of a multidrug binding transcriptional repressor, LmrR” (Scientific Reports, 2017)
